Experiments:
FLT3-D835Y = target: T1, FLT3-D835Y (Homo sapiens, UniProt P36888, D835Y); test: FLT3-D835Y biochemical kinase assay (AlphaScreen)
T1 construct: purchased Invitrogen PV3967
T1 sequence (P36888 27-993 D835Y): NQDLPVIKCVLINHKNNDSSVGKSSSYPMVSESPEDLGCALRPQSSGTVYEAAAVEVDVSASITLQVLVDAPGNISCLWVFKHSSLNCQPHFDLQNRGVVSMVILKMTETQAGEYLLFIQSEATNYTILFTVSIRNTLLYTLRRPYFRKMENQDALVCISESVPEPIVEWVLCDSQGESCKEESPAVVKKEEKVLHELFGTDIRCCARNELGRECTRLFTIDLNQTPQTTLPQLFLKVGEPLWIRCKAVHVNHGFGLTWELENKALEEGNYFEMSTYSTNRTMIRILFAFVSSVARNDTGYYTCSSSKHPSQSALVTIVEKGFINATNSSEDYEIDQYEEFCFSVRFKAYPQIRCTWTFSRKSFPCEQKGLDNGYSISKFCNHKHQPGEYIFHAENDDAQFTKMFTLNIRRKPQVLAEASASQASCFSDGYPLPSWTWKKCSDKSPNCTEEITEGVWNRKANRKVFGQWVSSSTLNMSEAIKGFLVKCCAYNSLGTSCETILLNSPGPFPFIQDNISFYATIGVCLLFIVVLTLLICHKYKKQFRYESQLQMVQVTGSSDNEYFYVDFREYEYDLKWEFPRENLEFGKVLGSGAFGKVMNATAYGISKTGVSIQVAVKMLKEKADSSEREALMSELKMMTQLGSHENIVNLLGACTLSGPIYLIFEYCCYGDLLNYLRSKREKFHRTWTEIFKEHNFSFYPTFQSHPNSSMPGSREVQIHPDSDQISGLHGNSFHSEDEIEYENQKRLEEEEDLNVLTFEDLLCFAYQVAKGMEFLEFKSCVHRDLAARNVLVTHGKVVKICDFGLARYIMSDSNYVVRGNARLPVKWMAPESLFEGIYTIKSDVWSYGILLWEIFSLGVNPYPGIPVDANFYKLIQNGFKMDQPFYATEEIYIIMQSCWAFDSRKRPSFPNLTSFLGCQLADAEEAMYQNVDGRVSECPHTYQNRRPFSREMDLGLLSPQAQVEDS
Method in brief: (§1)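 AlphaScreen read-out of tyrosine phosphorylation of a 30 nM biotinylated poly(Glu4-Tyr) substrate, captured on streptavidin donor and PY20 acceptor beads at room temperature. ATP for IC50 work was 100 μM with FLT3-ITD and 10 μM with FLT3-D835Y; reduced 580 nm proximity signal reflects kinase inhibition.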

FLT3-ITD = target: T2, FLT3-ITD (Homo sapiens, UniProt P36888); test: FLT3-ITD biochemical kinase assay (AlphaScreen)
T2 construct: FLT3-ITD; Invitrogen #PV6190
T2 sequence (P36888 1-993): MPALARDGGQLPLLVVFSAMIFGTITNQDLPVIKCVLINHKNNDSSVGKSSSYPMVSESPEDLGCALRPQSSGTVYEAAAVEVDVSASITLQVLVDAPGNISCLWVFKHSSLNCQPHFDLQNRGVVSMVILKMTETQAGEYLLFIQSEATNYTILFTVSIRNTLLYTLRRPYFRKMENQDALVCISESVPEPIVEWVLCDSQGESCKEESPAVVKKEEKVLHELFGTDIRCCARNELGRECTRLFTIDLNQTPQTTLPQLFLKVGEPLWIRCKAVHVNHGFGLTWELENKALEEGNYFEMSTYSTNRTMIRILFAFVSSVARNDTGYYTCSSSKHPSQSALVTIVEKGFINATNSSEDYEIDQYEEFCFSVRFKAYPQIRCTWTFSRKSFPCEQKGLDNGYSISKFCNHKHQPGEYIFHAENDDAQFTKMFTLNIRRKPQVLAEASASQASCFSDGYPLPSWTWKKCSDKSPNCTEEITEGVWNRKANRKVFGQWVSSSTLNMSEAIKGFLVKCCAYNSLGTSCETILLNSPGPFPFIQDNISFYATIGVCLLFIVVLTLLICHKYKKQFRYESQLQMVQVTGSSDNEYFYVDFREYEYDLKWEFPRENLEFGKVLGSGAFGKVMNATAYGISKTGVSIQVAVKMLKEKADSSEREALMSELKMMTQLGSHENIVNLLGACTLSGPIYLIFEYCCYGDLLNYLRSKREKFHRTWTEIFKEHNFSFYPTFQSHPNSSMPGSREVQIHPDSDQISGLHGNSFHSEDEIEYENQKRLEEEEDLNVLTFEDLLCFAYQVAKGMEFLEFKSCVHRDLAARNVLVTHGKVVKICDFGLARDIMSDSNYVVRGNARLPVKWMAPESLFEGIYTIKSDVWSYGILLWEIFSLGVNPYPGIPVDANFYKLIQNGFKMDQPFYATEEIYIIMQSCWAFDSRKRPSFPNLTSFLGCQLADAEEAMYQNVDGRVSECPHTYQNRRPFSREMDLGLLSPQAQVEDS
Method in brief: as §1

Row | IC50 (FLT3-D835Y) [µM] | IC50 (FLT3-ITD) [µM] | Structure (SMILES)
1 | – | 1 to 10 | CC(C)(C)n1cnc2ccc(-c3c[nH]c4ncc(-c5cnc(F)c(F)c5)nc34)cc21 [P-390, 7-(3-tert-butylbenzimidazol-5-yl)-2-(5,6-difluoro-3-pyridyl)-5H-pyrrolo[2,3-b]pyrazine]
2 | 0.0001 to 1 | 0.0001 to 1 | c1cc(-c2cnc3[nH]cc(-c4ccc5ncn(C6CCCNC6)c5c4)c3n2)cc(N2CCCCC2)n1 (stereo not shown) [P-339, 7-[3-(3-piperidyl)benzimidazol-5-yl]-2-[2-(1-piperidyl)-4-pyridyl]-5H-pyrrolo[2,3-b]pyrazine]
3 | 0.0001 to 1 | 0.0001 to 1 | CN1CCN(c2cccc(-c3cnc4[nH]cc(-c5ccc6ncn(C7CCCNC7)c6c5)c4n3)c2)CC1 (stereo not shown) [P-332, 2-[3-(4-methylpiperazin-1-yl)phenyl]-7-[3-(3-piperidyl)benzimidazol-5-yl]-5H-pyrrolo[2,3-b]pyrazine]
4 | 0.0001 to 1 | 0.0001 to 1 | CCN1CCN(c2ccc(-c3cnc4[nH]cc(-c5ccc6ncn(C7CCCNC7)c6c5)c4n3)cn2)CC1 (stereo not shown) [P-366, 2-[6-(4-ethylpiperazin-1-yl)-3-pyridyl]-7-[3-(3-piperidyl)benzimidazol-5-yl]-5H-pyrrolo[2,3-b]pyrazine]
5 | 0.0001 to 1 | 0.0001 to 1 | COc1cc(-c2cc3c(-c4ccc5ncn(C(C)(C)C)c5c4)c[nH]c3nn2)ccn1 [P-315, 5-(3-tert-butylbenzimidazol-5-yl)-3-(2-methoxy-4-pyridyl)-7H-pyrrolo[2,3-c]pyridazine]
6 | 0.0001 to 1 | 0.0001 to 1 | CC(C)(C)n1cnc2ccc(-c3c[nH]c4ncc(-c5cnc(O)nc5)nc34)cc21 [P-363, 5-[7-(3-tert-butylbenzimidazol-5-yl)-5H-pyrrolo[2,3-b]pyrazin-2-yl]pyrimidin-2-ol]
7 | 0.0001 to 1 | 0.0001 to 1 | Cn1cnc2ccc(-c3c[nH]c4nnc(Cl)cc34)cc21 [P-313, 3-chloro-5-(3-methylbenzimidazol-5-yl)-7H-pyrrolo[2,3-c]pyridazine]
8 | 0.0001 to 1 | 0.0001 to 1 | CC(C)(C)n1cnc2ccc(-c3c[nH]c4ncc(-c5ccc(N6CCCCC6)cc5)nc34)cc21 [P-345, 7-(3-tert-butylbenzimidazol-5-yl)-2-[4-(1-piperidyl)phenyl]-5H-pyrrolo[2,3-b]pyrazine]
9 | 0.0001 to 1 | 0.0001 to 1 | c1cc(-c2cnc3[nH]cc(-c4ccc5ncn(C6CCCNC6)c5c4)c3n2)cc(N2CCCCC2)c1 (stereo not shown) [P-337, 7-[3-(3-piperidyl)benzimidazol-5-yl]-2-[3-(1-piperidyl)phenyl]-5H-pyrrolo[2,3-b]pyrazine]
10 | 0.0001 to 1 | 0.0001 to 1 | CC(C)(C)n1cnc2ccc(-c3c[nH]c4ncc(-c5ccc(N6CCC(F)(F)CC6)nc5)nc34)cc21 [P-356, 7-(3-tert-butylbenzimidazol-5-yl)-2-[6-(4,4-difluoro-1-piperidyl)-3-pyridyl]-5H-pyrrolo[2,3-b]pyrazine]
11 | – | 0.0001 to 1 | COc1ncc(-c2cnc3[nH]cc(-c4ccc5ncn(C(C)(C)C)c5c4)c3n2)cc1C#N [P-405, 5-[7-(3-tert-butylbenzimidazol-5-yl)-5H-pyrrolo[2,3-b]pyrazin-2-yl]-2-methoxy-pyridine-3-carbonitrile]

The remaining lines, values behind:

Row | Structure (SMILES) | IC50 (FLT3-D835Y) [µM] | IC50 (FLT3-ITD) [µM]
12 | O=S1(=O)CCCN1c1cc(-c2cnc3[nH]cc(-c4ccc5ncn(C6CCCNC6)c5c4)c3c2)ccn1 (stereo not shown) [P-311, 2-[4-[3-[3-(3-piperidyl)benzimidazol-5-yl]-1H-pyrrolo[2,3-b]pyridin-5-yl]-2-pyridyl]-1,2-thiazolidine 1,1-dioxide] | 0.0001 to 1 | 0.0001 to 1
13 | Cc1ncc(C#Cc2cnc3[nH]cc(-c4ccc5ncn(C6CCCNC6)c5c4)c3n2)cn1 (stereo not shown) [P-285, 2-[2-(2-methylpyrimidin-5-yl)ethynyl]-7-[3-(3-piperidyl)benzimidazol-5-yl]-5H-pyrrolo[2,3-b]pyrazine] | 0.0001 to 1 | 0.0001 to 1
14 | COc1cc(C#Cc2cnc3[nH]cc(-c4ccc5ncn(C(C)(C)C)c5c4)c3n2)ccn1 [P-279, 7-(1-(tert-butyl)-1H-benzo[d]imidazol-6-yl)-2-((2-methoxypyridin-4-yl)ethynyl)-5H-pyrrolo[2,3-b]pyrazine] | 0.0001 to 1 | 0.0001 to 1
15 | COc1cc(C#Cc2cnc3[nH]cc(-c4ccc5ncn(C6CCCNC6)c5c4)c3n2)ccn1 (stereo not shown) [P-280, 2-((2-methoxypyridin-4-yl)ethynyl)-7-(1-(piperidin-3-yl)-1H-benzo[d]imidazol-6-yl)-5H-pyrrolo[2,3-b]pyrazine] | 0.0001 to 1 | 0.0001 to 1
16 | COc1cc(-c2cnc3[nH]cc(-c4ccc5ncn(C6(C(F)(F)F)CC6)c5c4)c3n2)ccn1 [P-312, 2-(2-methoxy-4-pyridyl)-7-[3-[1-(trifluoromethyl)cyclopropyl]benzimidazol-5-yl]-5H-pyrrolo[2,3-b]pyrazine] | 0.0001 to 1 | 0.0001 to 1
17 | COc1cc(-c2cnc3[nH]cc(-c4ccc5ncn(C(C)(C)C)c5c4)c3c2)c(OC)nn1 [P-292, 1-tert-butyl-6-[5-(3,6-dimethoxypyridazin-4-yl)-1H-pyrrolo[2,3-b]pyridin-3-yl]benzimidazole] | 0.0001 to 1 | 0.0001 to 1
18 | CC(C)(C)n1cnc2ccc(-c3c[nH]c4ncc(-c5ccc(C#N)nc5)cc34)cc21 [P-290, 5-[3-(3-tert-butylbenzimidazol-5-yl)-1H-pyrrolo[2,3-b]pyridin-5-yl]pyridine-2-carbonitrile] | 0.0001 to 1 | 0.0001 to 1
19 | O=S1(=O)CCCCN1c1cc(-c2cnc3[nH]cc(-c4ccc5ncn(C6CCCNC6)c5c4)c3n2)ccn1 (stereo not shown) [P-310, 2-[4-[7-[3-(3-piperidyl)benzimidazol-5-yl]-5H-pyrrolo[2,3-b]pyrazin-2-yl]-2-pyridyl]thiazinane 1,1-dioxide] | 0.0001 to 1 | 0.0001 to 1
20 | c1nc(N2CCOCC2)ncc1-c1cnc2[nH]cc(-c3ccc4ncn(C5CCCNC5)c4c3)c2c1 (stereo not shown) [P-277, 4-[5-[3-[3-(3-piperidyl)benzimidazol-5-yl]-1H-pyrrolo[2,3-b]pyridin-5-yl]pyrimidin-2-yl]morpholine] | 0.0001 to 1 | 0.0001 to 1
21 | COc1cnc2[nH]cc(-c3ccc4ncn(C5CCCNC5)c4c3)c2c1 (stereo not shown) [P-079, 5-methoxy-3-[3-(3-piperidyl)benzimidazol-5-yl]-1H-pyrrolo[2,3-b]pyridine] | 0.0001 to 1 | 0.0001 to 1
22 | CC(C)(C)n1cnc2ccc(-c3c[nH]c4ncc(-c5ccnc(C#N)c5)nc34)cc21 [P-301, 4-[7-(3-tert-butylbenzimidazol-5-yl)-5H-pyrrolo[2,3-b]pyrazin-2-yl]pyridine-2-carbonitrile] | 0.0001 to 1 | –
23 | COc1cnc2[nH]cc(-c3ccc4ncn(C(C)(C)C)c4c3)c2c1 [P-074, 1-tert-butyl-6-(5-methoxy-1H-pyrrolo[2,3-b]pyridin-3-yl)benzimidazole] | 0.0001 to 1 | –
24 | COc1cnc2[nH]cc(-c3ccc4ncn(-c5ccccc5)c4c3)c2c1 [P-068, 5-methoxy-3-(3-phenylbenzimidazol-5-yl)-1H-pyrrolo[2,3-b]pyridine] | 0.0001 to 1 | –

Source: patent publication US10160755B2 (Plexxikon Inc., priority 2015, dated 2018)
